Test results taken from PubChem BioAssay AID488888 (Sanford-Burnham Center for Chemical Genomics, 2010).
Active and inactive are the calls of the source.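 How the source made its calls: active means mean EC50, the dose giving half of full activation, below a set limit (actives reach about 84 µM in these data); inactive means the rest.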

target: Alkaline phosphatase, placental type (Homo sapiens) (UniProt P05187); test: PLAP enzyme activators, dose response, selectivity assay for human IAP activator project, biochemical, uHTS hits, luminescence (AID 488888); conditions: purified PLAP, CDP-Star luminescence, 30 min
Sequence (P05187 whole entry, looked up): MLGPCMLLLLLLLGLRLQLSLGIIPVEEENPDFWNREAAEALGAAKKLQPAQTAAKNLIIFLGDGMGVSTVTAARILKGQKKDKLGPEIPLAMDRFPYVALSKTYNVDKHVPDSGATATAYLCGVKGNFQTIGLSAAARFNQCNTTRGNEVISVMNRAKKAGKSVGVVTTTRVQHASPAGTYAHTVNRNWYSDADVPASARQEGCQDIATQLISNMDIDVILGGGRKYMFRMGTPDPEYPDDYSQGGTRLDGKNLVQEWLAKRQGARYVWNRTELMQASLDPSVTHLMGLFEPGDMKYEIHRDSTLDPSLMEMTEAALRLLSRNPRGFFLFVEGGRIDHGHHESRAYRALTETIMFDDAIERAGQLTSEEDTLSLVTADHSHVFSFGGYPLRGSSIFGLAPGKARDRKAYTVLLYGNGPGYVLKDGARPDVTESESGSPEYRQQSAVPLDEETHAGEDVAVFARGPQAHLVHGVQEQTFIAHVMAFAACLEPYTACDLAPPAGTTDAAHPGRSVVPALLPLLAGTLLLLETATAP

EC50 | SMILES
15.2 µM | O=c1cc(-c2ccccc2)[nH]n1-c1nc2ccccc2[nH]1
5.73 µM | O=C(N/N=C/c1ccc(O)cc1O)C(=O)N/N=C/c1ccc(O)cc1O
25.5 µM | Cc1cc(Br)ccc1SCC(=O)OC/C(O)=C(\C#N)c1nc2ccccc2[nH]1
60 µM | CCC(NC(=S)NC1CCCCC1)c1ccc(C(C)C)cc1 (centres undefined)
12 µM | O=C(CCCCC(=O)NNC(=O)COc1ccccc1)NNC(=O)COc1ccccc1
23.2 µM | CCOC(=O)c1c(C)[nH]c(C(=O)N/N=C/c2cc([N+](=O)[O-])ccc2O)c1C
9.19 µM | Cc1cccc(-n2ncc3c(NNC(=O)c4ccco4)ncnc32)c1
10.9 µM | CCn1c(C)nc2cc(C(=O)N/N=C/c3cccc(O)c3O)ccc21
25 µM | CCOC(=O)c1cnc(-n2nc(C)cc2C)nc1NNc1nc(C)cc(C)n1
11.2 µM | CCOc1ccc(/C=N/NC(=O)c2[nH]ncc2Br)c(O)c1
18.6 µM | Cc1nn(C)c(C(=O)NNC(=S)NCc2ccccc2)c1Cl
17 µM | Cc1cc(OCC(=O)Nc2ncn[nH]2)ccc1Cl
73.7 µM | CCN(CC)c1ccc(/C=N/NC(=O)c2nnn(-c3nonc3N)c2C(C)C)c(O)c1
59.3 µM | CCC(C)(C)C1CCc2[nH]nc(C(=O)N/N=C(\C)c3ccco3)c2C1 (centres undefined)
13.6 µM | O=C(NC(=S)NNC(=O)c1ccccc1O)c1ccc(F)cc1
75.2 µM | Cc1ccccc1CN1CCC(n2nccc2NC(=O)CCCc2ccccc2)CC1
0.718 µM | C=CCN1C(=O)C2(NNc3ccccc3O2)c2ccccc21 (centres undefined)
15.5 µM | O=C(Nc1ccon1)c1nc[nH]c1C(=O)NCc1ccccc1
53.1 µM | Cc1cc(C(=O)NC2CC(C)(C)Cc3c2cnn3-c2ccccc2)n[nH]1 (centres undefined)
0.55 µM | O=C1Nc2ccc(Br)cc2C12NNc1ccccc1O2 (centres undefined)
35.9 µM | CC(C)(C)NC(=O)C(=O)NNC(=O)COc1ccccc1
24.1 µM | CC(C)Oc1ccc(C(=O)Nc2ncn[nH]2)cc1
10.5 µM | OC(c1nc2ccc(F)cc2[nH]1)C(O)c1nc2ccc(F)cc2[nH]1 (centres undefined)
88.3 µM | COc1ccccc1CNC(=O)CN(c1ccc(C)cc1)S(=O)(=O)c1c(C)noc1C
13.2 µM | Cc1nc(S/C(=C/c2ccc(-c3ccc(Cl)cc3)o2)C(=O)O)n[nH]1

EC50 | SMILES
16.4 µM | Cc1c(C(=O)N/N=C/c2c(O)ccc3ccccc23)nnn1-c1nonc1N
66.8 µM | O=C(N/N=C/c1c(F)cccc1Cl)c1cc(C2CC2)[nH]n1
7.82 µM | COc1cccc(/C=N\NC(=O)C2=NNC(=O)C2C)c1O (centres undefined)
82.7 µM | Cc1cc(C)cc(CC(Cc2nc3ccccc3[nH]2)c2nc3ccccc3[nH]2)c1 (centres undefined)
42.3 µM | Cc1cccc(NS(=O)(=O)c2cccc(C(=O)NNC(=O)c3ccccc3O)c2)c1
13.4 µM | CCc1ccc(/C=N/Nc2ncnc3nc[nH]c23)cc1
13.2 µM | CC1C(=O)NN=C1C(=O)N/N=C\c1ccc(O)cc1O (centres undefined)
28.4 µM | CN(CC(=O)Nc1ccccc1F)CC(=O)Nc1ccc(F)c(F)c1F
20.4 µM | CCOc1ccc(CC(=O)NNC(=S)NC2CCCCC2)cc1OCC
27.1 µM | c1ccc(-c2cccc(-c3ccccn3)n2)nc1
16.1 µM | CSCCC(NS(=O)(=O)c1ccc(C)cc1)C(=O)NNC(=O)c1csc(N2CCOCC2)n1 (centres undefined)
14.4 µM | COc1ccc(C2=NN(C3=NN=C(N)Cc4ncnn43)C(O)(C(F)(F)F)C2)cc1 (centres undefined)
12.3 µM | COc1ccccc1C1=NN(C2=NN=C(N)Cc3ncnn32)C(O)(C(F)(F)F)C1 (centres undefined)
13.5 µM | Cc1nc2c3ccccc3nc(NNC(=O)CCC(=O)N3CCCC(C)C3)n2n1 (centres undefined)
14.3 µM | Cc1ccsc1C(=O)NNC(=S)NC1CCCCC1
13.9 µM | Cc1nc2c3ccccc3nc(NNC(=O)CCC(=O)NCCC(C)C)n2n1
14.7 µM | CC(NS(=O)(=O)c1ccc(Br)cc1)C(=O)Nc1nc2ccccc2[nH]1 (centres undefined)
62.2 µM | Cn1c(/C(C#N)=C(\O)c2ccc(Br)s2)nc2ccccc21
16.7 µM | Cc1ccc(S(=O)(=O)NCCC(=O)NNC(=O)COc2ccc(Br)cc2)cc1C
25.3 µM | O=C(CCN1C(=O)/C(=C/c2ccccc2Cl)SC1=S)NNC(=O)c1ccccc1O
14.5 µM | O=C(NN1C(=O)CSC1=S)C(=O)NN1C(=O)CSC1=S
13.7 µM | O=C(NNC(=S)NCc1ccco1)c1ccccc1Br
69 µM | COc1ccccc1CN1CCC(n2nccc2NC(=O)CCCc2ccccc2)CC1
20.7 µM | O=C(Cc1ccc(Cl)c(Cl)c1)NNC(=S)NCC1CCCO1 (centres undefined)
> 100 µM (inactive) | O=C(O)C1OC(Oc2c(-c3ccc(O)c(O)c3)oc3cc(O)cc(O)c3c2=O)C(O)C(O)C1O (centres undefined)

EC50 | SMILES
18.7 µM | Cc1nc(Nc2nc3c(c(=O)[nH]2)CCC3)nc2ccccc12
23.1 µM | COc1ccc(OC)c(NC(=O)c2cc(-c3cc(C)ccc3O)n[nH]2)c1
9.75 µM | O=Nc1[nH]c(=O)c(/C=C(\O)c2ccccc2)nc1NO
30.8 µM | Cc1[nH]n(-c2nc(-c3ccccc3)cc(=O)[nH]2)c(=O)c1CCO
11 µM | O=C(N/N=C/c1c(O)ccc2ccccc12)c1[nH]ncc1Br
75.5 µM | Cc1ccc(O)c(/C=N/NC(=O)c2[nH]ncc2Br)c1
10.5 µM | O=C(NNC(=S)NC(=O)c1ccccc1[N+](=O)[O-])c1ccccc1O
71.6 µM | COc1ccc(CN2CCC(n3nccc3NC(=O)CCCc3ccccc3)CC2)cc1C
61.6 µM | CC(C)CC(=O)NC(=S)NNC(=O)c1ccc(NC(=O)C2CCCCC2)cc1
78.1 µM | CC(C)n1cc(CN2CCC(C(=O)Nc3cccc(-c4cccc(Cl)c4)c3)CC2)cn1
19.1 µM | CCOCCCNC(=O)CCC(=O)NNc1nc2ccccc2c2nc(-c3ccccc3)nn12
15.3 µM | Cc1nc2c3ccccc3nc(NNC(=O)CCC(=O)NCCN3CCN(c4ccccc4)CC3)n2n1
16.7 µM | CCCOCC(O)CC(CC)C(=O)NNC(=S)Nc1ccccc1 (centres undefined)
64.2 µM | COc1cc(NC(=O)NCC2CCN(Cc3ccccc3Cl)CC2)cc(OC)c1OC
15.3 µM | Cc1ccc(NC(=O)NNC(=O)c2cc3ccccc3cc2O)cc1
12.5 µM | CC(=O)Nc1cccc(C(=O)NNC(=O)c2n[nH]c(=O)c3ccccc23)c1
18.7 µM | Cc1cc(C)cc(OCC(=O)NNC(=O)c2cc(C)[nH]n2)c1
> 100 µM (inactive) | O=c1oc(-c2ccc(O)c(O)c2)cc2cc(O)cc(O)c12
19.8 µM | C[C@@H](NC(=O)c1[nH]cnc1C(=O)Nc1ccon1)c1ccccc1
12.5 µM | CSCCC(NS(=O)(=O)c1ccccc1F)C(=O)NNC(=O)c1csc(N2CCOCC2)n1 (centres undefined)
56 µM | COc1ccccc1CCNC(=O)C1CCN(c2nnc(C)c3c(C)n(-c4ccc(C)cc4)nc23)CC1
1.91 µM | CCOc1cccc(-c2nc(C(N)=O)c3[nH]c(=O)n(-c4cccc(Cl)c4)c3n2)c1O
78.9 µM | COc1cc(NC(=O)NCC2CCN(Cc3ccccc3C)CC2)cc(OC)c1OC
21.2 µM | CC(C)Oc1ccc(CCC(=O)NNC(=S)NCc2ccccc2)cc1
15.3 µM | CC1=NN(c2nc3ccccc3[nH]2)C(=O)/C1=C/N(C)C

EC50 | SMILES
19.5 µM | COc1ccccc1N(C)S(=O)(=O)c1ccc(Cl)c(C(=O)NNC(=O)c2ccccc2O)c1
53.7 µM | CCn1nc(C)c(CN2CCC(C(=O)Nc3cccc(-c4cccc(F)c4)c3)CC2)c1C
35.2 µM | O=c1c2ccccc2nc(N/N=C/c2c(O)ccc3ccccc23)n1O
14.7 µM | CCn1c(C)nc2cc(C(=O)NNC(=S)Nc3ccccc3)ccc21
11.5 µM | NC(CO)C(=O)NNCc1ccc(O)c(O)c1O (centres undefined)
81.4 µM | COc1cc(CN2CCC(n3nccc3NC(=O)CCCc3ccccc3)CC2)ccc1F
41.1 µM | CC(NC(=S)NC1CCC(C(C)(C)C)CC1)c1ccccc1 (centres undefined)
12.7 µM | O=C(/C=C/c1cccs1)NC(=S)NNC(=O)c1ccccc1O
8.04 µM | Cc1ccc(-c2cc(C(=O)N/N=C/c3ccccc3O)n[nH]2)o1
> 100 µM (inactive) | O=C(O)c1ccccc1C(=O)Nc1cc(-c2ccccc2)[nH]n1
60.8 µM | Cc1cccc(CC(Cc2nc3ccccc3[nH]2)c2nc3ccccc3[nH]2)c1 (centres undefined)
16.4 µM | O=C(NNC(=S)NC1CCCCC1)c1ccccc1Br
17.8 µM | CN(Cc1ccccc1)C(=O)c1[nH]cnc1C(=O)Nc1nccs1
13.9 µM | COc1cc(OC)cc(C(=O)NNC(=O)c2nn(C)c(=O)c3ccccc23)c1
70 µM | CCOc1cc(/C=N/NC(=O)C(=O)N/N=C/c2ccc(O)c(OCC)c2)ccc1O
15.6 µM | Cc1cccc(OCC(=O)NNC(=O)c2ccc3nc[nH]c3c2)c1
19.1 µM | COc1ccc(O)c(/C=N/NC(=S)NCCc2ccccc2)c1
0.663 µM | C=CCn1c(O)c(N=Nc2ccccc2O)c2ccccc21
84 µM | CCOc1ccccc1CN1CCC(n2nccc2NC(=O)CCc2ccccc2)CC1
9.82 µM | CC(C)C(=O)NC(=S)Nc1ccccc1C(=O)Nc1ccccc1
13.5 µM | CN(C)S(=O)(=O)c1cccc(NC(=S)NNC(=O)c2cc3ccccc3cc2O)c1
18.7 µM | O=C(NNC(=S)NC(=O)c1ccccc1)c1cccnc1
15.2 µM | CC(C)(C)OC(=O)N1CCC(NC(=O)c2[nH]cnc2C(=O)Nc2ccon2)CC1
13.6 µM | Cc1cc(=O)[nH]c(-n2[nH]c3c(c2=O)CCCC3)n1
